By IC50 is commonly meant the midpoint of a concentration-inhibition curve. By melting point is commonly meant the temperature of the solid-liquid transition.

The results in this text go back to patent US7919623B2, “Naphthyridine derivatives having inhibitory activity against HIV integrase” (Shionogi & Co., Ltd., priority 2004, dated 2011).

SMILES strings stand for the structures.

One data set concerns the target HIV integrase (Human immunodeficiency virus type 1 group M subtype B, UniProt P04585). As to the kind of experiment: biochemical.

Protocol for HIV integrase: The inhibitory activities against integrase were determined by the assay described below. • (1) Preparation of DNA Solutions
Before using the DNA solutions, complementary chains were annealed by slowly cooling after boiling.
Streptavidin, obtained from Vector Laboratories, was dissolved in 0.1 M carbonate buffer (composition: 90 mM Na2CO3, 10 mM NaHCO3) at concentration of 40 μg/ml. After coating each well of immunoplates (obtained from NUNC) with 50 μl of the above solution at 4° C. over night, each well was washed twice with PBS (composition: 13.7 mM NaCl, 0.27 mM KCl, 0.43 mM Na2HPO4, 0.14 mM KH2PO4) and blocked with 300 μl of 1% skim milk in PBS for 30 min. Additionally, each well was washed twice with PBS and added 50 μl of substrate DNA solution (2 pmol/μl). The immunoplates were kept at room temperature for 30 min while shaking. Then, each well was washed twice with PBS and once with the distilled water.
Subsequently, in the each well prepared above were added 51 μl of the reaction solution prepared from 12 μl of the buffer (composition: 150 mM MOPS (pH7.2), 75 mM MnCl2, 50 mM 2-mercaptoethanol, 25% glycerol, 500 μg/ml bovine serum albumin-fraction V), and 39 μl of the distilled water. Then 9 μl of an integrase solution (30 pmol) was added and mixed well. In the well of negative control (NC) was added 9 μl of the integrase dilution buffer (composition: 20 mM MOPS (pH7.2), 400 mM potassium glutamate, 1 mM EDTA, 0.1% NP-40, 20% glycerol, 1 mM DTT, 4M urea), and mixed well using a plate mixer.
The plates were incubated at 30° C. for 60 minutes. The reaction solution was removed and washed three times with 250 μl of washing buffer (composition: 150 mM MOPS (pH7.2), 50 mM 2-mercaptoethanol, 25% glycerol, 500 μg/ml bovine serum albumin-fraction V).
Then each well was added with 53 μl of reaction solution prepared from 12 μl of buffer (composition: 150 mM MOPS (pH7.2), 75 mM MgCl2, 50 mM 2-mercaptoethanol, 25% glycerol, 500 μg/ml bovine serum albumin-fraction V) and 41 μl of distilled water. Further, each well was added with 6 μl of DMSO solution of a compound to be tested, and the well of positive control (PC) was added with 6 μl of DMSO, and mixed well by a plate mixer. After incubating the plate for 30 minutes at 30° C., was added 1 μl of target DNA (5 pmol/μl), and mixed well by a plate mixer.
After incubation for 10 minutes at 30° C., each plate was washed twice with PBS after removal of the reaction solution. Then, 100 μl of ×2000 diluted solution of anti-digoxigenin antibody labeled with alkaline phosphatase (sheep Fab fragment: Boehringer) was added allowed to bind for 1 hour at 30° C., and washed twice with PBS containing 0.05% Tween20 and once with PBS in this sequence. Next, 150 μl of the Alkaline phosphatase coloring buffer (composition: 10 mM p-Nitrophenylphosphate (obtained from Vector Laboratories), 5 mM MgCl2, 100 mM NaCl, 100 mM Tris-HCl (pH 9.5)) was added and allowed to react for 2 hours at 30° C. Then the reaction was terminated by the addition of 50 μl of 1N NaOH solution. The optical density at 405 nm (OD405nm) of each well was measured and the inhibition rate (IC50) was determined by the following expression. The inhibition rate(%)=100[1−{(C abs.−NC abs.)/(PC abs.−NC abs.)}]
C abs.; the OD of the well of the compound
NC abs.: the OD of the negative control (NC)
PC abs.: the OD of the positive control (PC)

`COCCCNC(=O)c1nc(NC(=O)COC)c2cc(Cc3ccc(F)cc3)cnc2c1O` [Example B-5, 3-(4-fluorobenzyl)-8-hydroxy-5-(2-methoxyacetylamino)[1,6]naphthyridine-7-carboxylic acid (3-methoxypropyl) amide] had a melting point of 159 to 160 °C. The same compound gave an IC50 against HIV integrase of 39.4 nM.

Compound `COCC(=O)Nc1nc(C(=O)NCCN(C(C)C)C(C)C)c(O)c2ncc(Cc3ccc(F)cc3)cc12` [Example B-6, 3-(4-fluorobenzyl)-8-hydroxy-5-(2-methoxyacetylamino)[1,6]naphthyridine-7-carboxylic acid (2-diisopropylaminoethyl)amide] gave a melting point of 69 to 70 °C. This compound also gave a 50% inhibitory concentration (IC50) against HIV integrase of 141 nM. Taken in the same sequence, the figures for `COCC=Cc1nc(C(=O)NN(C)C)c(O)c2ncc(Cc3ccc(F)cc3)cc12` [Example B-19, 3-(4-fluorobenzyl)-8-hydroxy-5-(3-methoxypropenyl)[1,6]naphthyridine-7-carboxylic acid N′,N′-dimethylhydrazide] were 115 to 116 °C and 11.2 nM. Compound `COCC=Cc1nc(C(=O)NCCOC)c(O)c2ncc(Cc3ccc(F)cc3)cc12` [Example B-4, 3-(4-fluorobenzyl)-8-hydroxy-5-(3-methoxypropenyl)[1,6]naphthyridine-7-carboxylic acid (2-methoxyethyl)amide] registered a melting point of 125 to 126 °C. This compound also had an IC50 against HIV integrase of 11.3 nM.

As to `CCOCCNC(=O)c1nc(NC(=O)COC)c2cc(Cc3ccc(F)cc3)cnc2c1O` [Example B-14, 3-(4-fluorobenzyl)-8-hydroxy-5-(2-methoxyacetylamino)[1,6]naphthyridine-7-carboxylic acid (2-ethoxyethyl)amide], the melting point was 175 to 177 °C. This compound also showed an IC50 on HIV integrase of 48.2 nM. As to `CNC(=O)C(=O)Nc1nc(C(=O)NC(C)CO)c(O)c2ncc(Cc3ccc(F)cc3)cc12` (centres unmarked) [Example B-28, N-[3-(4-fluorobenzyl)-8-hydroxy-7-(2-hydroxy-1-methylethylcarbamoyl)[1,6]naphthyridine-5-yl]-N′-methyl oxalamide], the melting point lay in the range of 131 to 133 °C. As for `COCCNC(=O)c1nc(C(=O)OC)c2cc(Cc3ccc(F)cc3)cnc2c1O` [Example A-1, Methyl 3-(4-fluorobenzyl)-8-hydroxy-7-(2-methoxyethylcarbamoyl) [1,6]naphthyridine-5-carbonate], the melting point lay in the range of 168 to 169 °C. Further, on HIV integrase, it took 5.81 nM to reach half-maximal inhibition (IC50). Taken in the same sequence, the figures for `COCC(=O)Nc1nc(C(=O)NCCC(=O)OC)c(O)c2ncc(Cc3ccc(F)cc3)cc12` [Example B-15, Methyl 3-([3-(4-fluorobenzyl)-8-hydroxy-5-(2-methoxyacetylamino)[1,6]naphthyridine-7-carbonyl]amino)propionate] were 168 to 170 °C and 44.6 nM. In turn, `CN(C)NC(=O)c1nc(NC(=O)C(=O)N(C)C)c2cc(Cc3ccc(F)cc3)cnc2c1O` [Example B-26, N-[7-(N′,dimethylhydrazinocarbonyl)-3-(4-fluorobenzyl)-8-hydroxy[1,6]naphthyridine-5-yl]-N′,N′-dimethyl oxalamide] displayed a melting point of 125 to 128 °C. Regarding `COCCNC(=O)c1nc(NC(C)=O)c2cc(Cc3ccc(F)cc3)cnc2c1O` [Example A-2, 5-acetylamino-3-(4-fluorobenzyl)-8-hydroxy[1,6]naphthyridine-7-carboxylic acid 2-methoxyethyl amide], the melting point was in the range of 216 to 217 °C. The IC50 at HIV integrase was 46.1 nM. `COCCNC(=O)c1nc(C(C)O)c2cc(Cc3ccc(F)cc3)cnc2c1O` (centres unmarked) [Example B-3, 3-(4-fluorobenzyl)-8-hydroxy-5-(1-hydroxyethyl)[1,6]naphthyridine-7-carboxylic acid (2-methoxyethyl) amide] registered a melting point of 179 °C. On HIV integrase, this compound gave an IC50 of 17 nM. Taken in the same sequence, the figures for `Cc1nc(C(=O)NN(C)C)c(O)c2ncc(Cc3ccc(F)cc3)cc12` [Example B-17, 3-(4-fluorobenzyl)-8-hydroxy-5-methyl[1,6]naphthyridine-7-carboxylic acid N′,N′-dimethylhydrazide] were 137 to 139 °C and 16.9 nM. `COCC(=O)Nc1nc(C(=O)NCCOC(C)C)c(O)c2ncc(Cc3ccc(F)cc3)cc12` [Example B-7, 3-(4-fluorobenzyl)-8-hydroxy-5-(2-methoxyacetylamino)[1,6]naphthyridine-7-carboxylic acid (2-isopropoxyethyl)amide]: the melting point fell in the range of 149 to 150 °C. At HIV integrase, the IC50 is 31.9 nM. Regarding `COCCNC(=O)c1nc(C(=O)OCCOC)c2cc(Cc3ccc(F)cc3)cnc2c1O` [Example A-5, 3-(4-fluorobenzyl)-8-hydroxy-7-(2-methoxyethylcarbamoyl)[1,6]naphthyridine-5-carboxylic acid 2-methoxyethyl ester], the melting point was 139 to 141 °C.

The compound `COCCNC(=O)c1nc(C(=O)OC2CCN(C(C)=O)CC2)c2cc(Cc3ccc(F)cc3)cnc2c1O` [Example A-6, 3-(4-fluorobenzyl)-8-hydroxy-7-(2-methoxyethylcarbamoyl)[1,6]naphthyridine-5-carboxylic acid 1-acetylpiperidine-4-yl ester] showed a melting point of 92 to 94 °C. For `COCCNC(=O)C(=O)Nc1nc(C(=O)NN(C)C)c(O)c2ncc(Cc3ccc(F)cc3)cc12` [Example B-25, N-[7-(N′,N′-dimethylhydrazinocarbonyl)-3-(4-fluorobenzyl)-8-hydroxy[1,6]naphthyridine-5-yl]-N′-(2-methoxyethyl)oxalamide], the melting point was in the range of 167 to 169 °C.

In turn, `CNC(=O)C(=O)Nc1nc(C(=O)NCCO)c(O)c2ncc(Cc3ccc(F)cc3)cc12` [Example B-27, N-[3-(4-fluorobenzyl)-8-hydroxy-7-(2-hydroxyethylcarbamoyl)[1,6]naphthyridine-5-yl]-N′-methyl oxalamide] came in with a melting point of 136 to 137 °C. With `COCC(=O)Nc1nc(C(=O)NC(C)C(=O)OC)c(O)c2ncc(Cc3ccc(F)cc3)cc12` (centres unmarked) [Example B-11, Methyl 2-{[3-(4-fluorobenzyl)-8-hydroxy-5-(2-methoxyacetylamino)[1,6]naphthyridine-7-carbonyl]amino}propionate], the melting point fell in the range of 181 to 182 °C. The IC50 against HIV integrase is 51 nM.

`COCC(=O)Nc1nc(C(=O)NCCC#N)c(O)c2ncc(Cc3ccc(F)cc3)cc12` [Example B-8, 3-(4-fluorobenzyl)-8-hydroxy-5-(2-methoxyacetylamino)[1,6]naphthyridine-7-carboxylic acid (2-cyanoethyl)amide] gave a melting point of 173 to 175 °C. At HIV integrase, inhibition was half-maximal at 27.4 nM (IC50).

Consider `CC(O)c1nc(C(=O)NN(C)C)c(O)c2ncc(Cc3ccc(F)cc3)cc12` (centres unmarked) [Example B-18, 3-(4-fluorobenzyl)-8-hydroxy-5-(1-hydroxyethyl)[1,6]naphthyridine-7-carboxylic acid N′,N′-dimethylhydrazide], for which the melting point lay within 114 to 116 °C. The same compound gave an IC50 against HIV integrase of 44.2 nM.

In turn, `COCCNC(=O)c1nc(C)c2cc(Cc3ccc(F)cc3)cnc2c1O` [Example B-2, 3-(4-fluorobenzyl)-8-hydroxy-5-methyl[1,6]naphthyridine-7-carboxylic acid (2-methoxyethyl)amide] gave a melting point of 167 to 168 °C. This compound gave an IC50 against HIV integrase of 20 nM. Taken in the same sequence, the figures for `COCCN(C)C(=O)c1nc(NC(=O)COC)c2cc(Cc3ccc(F)cc3)cnc2c1O` [Example B-16, 3-(4-fluorobenzyl)-8-hydroxy-5-(2-methoxyacetylamino)[1,6]naphthyridine-7-carboxylic acid (2-methoxyethyl)methylamide] were 66 to 68 °C and 57 nM.
